Here are results for one compound from publication PMC4492727 (Pharmacology Research & Perspectives, 2015).

≈ marks a conversion by molar mass, not a printed value. Where two headings read alike, the source gives them in different places.

For data set [1], the system named is MDCK II (MDR1) cells. The class given is in vitro ADME, canine (cells expressing human P-gp). The conditions noted are these: 2.4 μmol/L telmisartan.
In another data set the test system is P-gp. The conditions noted are these: read-out: IC50 as inhibitor of P-gp; ref Weiss et al. [2010]; cited from earlier work.
Data set [2] deals with P-gp activity of the murine cell line P388/dx. To be noted: P388/dx cells; ref Weiss et al. [2010]; cited from earlier work.
Data set [3] has as its system MDCK II cells transfected with the human MDR1 gene. To be noted: 5 μmol/L telmisartan, 30 min preincubation; ref Chang et al. ([2006]); cited from earlier work.
For data set [4] the following is noted: cited from earlier work.
Data set [5] has as its system MDCK II (MDR1) cells. Kind of data set: Bidirectional transepithelial transport across MDCK II.

A word on the IC50: it is the midpoint of a concentration-inhibition curve. As a reminder, the aqueous solubility is the dissolved amount per volume that the medium holds. As for `CCCc1nc2c(C)cc(-c3nc4ccccc4n3C)cc2n1Cc1ccc(-c2ccccc2C(=O)O)cc1` [telmisartan], in the data set on MDCK II (MDR1) cells [1], the “effect on amount of [3H]-digoxin present in cells and filter” value is listed as “no difference”; the “increase in concentration of verapamil in cells compared to untreated control” value is reported as roughly 26%. The IC50 in the data set on P-gp is 380 nM. The “P-gp inhibitory effect, calcein AM uptake” value in data set [2] is listed as “inhibited”. Further, in data set [3], the “inhibition of the efflux transport of digoxin” value is listed as “able to inhibit”. Besides, the aqueous solubility in data set [4] (ref Park et al. [2013]) was 0.45 µM (≈ 0.232 µg/mL). Further, the aqueous solubility in data set [4] (ref Tran et al. [2008]) is 0.17 µM (≈ 0.0875 µg/mL). For the same compound, in the data set with MDCK II (MDR1) cells [5] (2.4 μmol/L telmisartan), the “effect on transepithelial efflux of [3H]-verapamil” value is given as “minor inhibition” and the “effect on transepithelial transport of [3H]-digoxin” value is recorded as “does not affect”. Moreover, the “effect on verapamil transport in pilot experiments” value in the data set with MDCK II (MDR1) cells [5] (low concentrations of telmisartan, data not shown) was “no effects”.
